Experimental findings from ChEMBL document CHEMBL1921788, “Development of melanoma-targeted polymer micelles by conjugation of a melanocortin 1 receptor (MC1R) specific ligand” (J Med Chem, 2011) are described below.

Non-standard residues stand in square brackets, D forms with d. Residues, ends and D or L forms follow the SMILES beside them. d2Nal = N[C@H](Cc1ccc2ccccc2c1)C(=O)O; Nle = CCCC[C@H](N)C(=O)O

The test system of this assay is HEK293. Put plainly: Selectivity ratio of Ki for human MC5 receptor expressed in human HEK293 cells to Ki for human MC1 receptor expressed in human HCT116 cells. The format is cell-based.

With `CCCC[C@H](NC(=O)[C@@H](NC(=O)[C@@H](N)Cc1ccc(O)cc1)C(C)C)C(=O)NCC(=O)N[C@@H](Cc1cnc[nH]1)C(=O)N[C@H](Cc1ccc2ccccc2c1)C(=O)N[C@@H](CCCNC(=N)N)C(=O)N[C@H](Cc1ccccc1)C(=O)N[C@@H](CC(=O)O)C(=O)N[C@@H](CCCNC(=N)N)C(=O)N[C@@H](Cc1ccccc1)C(=O)NCC(N)=O` (H-YV[Nle]GH[d2Nal]R[dF]DRFG-NH2), the Ratio Ki was found to be 0.13.
